Results reported in patent publication US9540378B2, “Composition comprising purine derivatives or salt thereof for preventing or treating atopic dermatitis” (DAEWOONG CO., LTD., priority 2012, dated 2017).
Marks after values point to notes of the source that are not given here.

Columns and labels:
[1] = system: IL-6; assay: Inhibition of inflammatory cytokine mRNA expression (RT-PCR) in LPS-treated Raw264.7 cells: IL-6; type: cell-based, mouse; details: 400 uM, LPS 1 ug/ml, 24 hours
Method: (§1) The inhibitory activity of the compound of Formula 1 was evaluated against the expressions of inflammatory cytokines of atopic dermatitis, i.e., IL-6, IL-10, IL-12p40, and COX-2. Briefly, the Raw264.7 mouse macrophage cell line (ATCC TIB-71) (about 1×10^6 cells) was added into the each well of a 12-well plate and then incubated in a RPMI medium supplemented with 100 U/ml penicillin, 100 ug/ml streptomycin and 10% fetal bovine serum. The cells were treated with the compound of Formula 1 (400 uM) and LPS (1 ug/ml), and then incubated under the condition of 37° C., 5% CO2 for 24 hours. The cells isolated from each group of the medium were treated with a Trizol reagent to extract the total RNA. Each cDNA was prepared according to the vendor's instruction, using a First strand cDNA synthesis kit (Fermentas). The resulting cDNAs (in the same amount for each cDNA) were subject to PCR amplification. The sense and antisense primers used were prepared according to the disclosures, i.e., Zhi-Qiang Chang et al., J. Nutr. Sci. Vitaminol., 2011, 27, p 118-122, JiYeon Lee et al., Biol. Pharm. Bull., 2007, 30(11), p 2043-2051, E. V. Maryukhnich et al., Biol. Sci., 2007, 414, p 242-245. […]

[2] = system: NC/Nga mice, animal models of atopic dermatitis; assay: In vivo inhibitory activity against atopic dermatitis in 2,4-DNFB-induced NC/Nga mice; details: for Reducing ratio (%) Dermatitis score: applied on affected sites twice per day for 10 days; for Reducing ratio (%) Dermatitis score / Reducing ratio (%) Difference of left and right ear thicknesses / Reducing ratio (%) Epidermis thickness / Reducing ratio (%) Number of mast cells / Reducing ratio (%) Serum IgE level: vs atopic control group; for Reducing ratio (%) Difference of left and right ear thicknesses / Reducing ratio (%) Epidermis thickness / Reducing ratio (%) Number of mast cells / Reducing ratio (%) Serum IgE level: topical, 10 days
Method: NC/Nga mice (male, 6 weeks old), animal models of atopic dermatitis, were subject to complete hair removal of the back skin, and then left for 24 hours for healing the minute wounds on the skin. Atopic dermatitis was induced to the mice as follows. That is, a 0.2% solution of 2,4-DNFB (2,4-dinitrofluorobenzene) was prepared by dissolving in a mixed solvent of acetone and olive oil (3:1, v/v). The solution (150 μl) was applied on the hair-removed site of each mouse twice per week for 4 weeks, to induce atopic dermatitis.
The normal control group (NC) was subject to only complete hair removal of the back skin. In case of the atopic dermatitis-induced atopic control group (AC), only Vaseline was applied on the hair-removed sites. […] Each group includes 8 mice.
The therapeutic activity against atopic dermatitis was evaluated through measuring dermatitis scores, epidermis thicknesses, left and right ear thicknesses, serum IgE levels, and numbers of mast cells.
The dermatitis scores were determined by observing the affected sites at the time when the treatments were completed, and then evaluating the visual changes such as erythema, bleeding, scab, etc., so as to yield the scores ranging from 1 to 10. From the resulting dermatitis scores, the inhibition ratio of each test group was calculated in comparison with the atopic control group.
Skin tissue was taken in a size of 1 cm×1 cm from the central area of each affected site, fixed with 10% formaldehyde solution, embedded in paraffin film, and then cut into a 4 μm section. Each tissue section was subject to hematoxylin-eosin (H&E) staining, and then observed with an optical microscope (×200, 5 sites per tissue) so as to calculate the epidermis thickness thereof.
The left and right ear thicknesses were measured with a digital vernier caliper, at the time when the test was started and at the time when the test was completed.
The serum IgE level was measured in the blood collected from the heart of each group mice, according to ELISA (Enzyme-linked immunosorbent assay) methods.
Skin tissue was taken in a size of 0.5 cm×1 cm from the central area of each affected site, fixed with IHC zinc fixative formalin-free solution, embedded in paraffin film, and then cut into a 4 μm section. Each tissue section was adhered on a slide coated with poly-L-lysine, followed by removing the paraffin and hydrating. Each resulting section was subject to toluidine blue staining, and then observed with an optical microscope (×200, 3 sites per tissue) so as to measure the number of mast cells.
All measurement values were calculated in mean±standard deviation. Statistical significances were determined with ANOVA. ≦5% is considered as being statistically significant.

[3] = system: IL-12p40; assay: Inhibition of inflammatory cytokine mRNA expression (RT-PCR) in LPS-treated Raw264.7 cells: IL-12p40; type: cell-based, mouse; details: 400 uM, LPS 1 ug/ml, 24 hours
Method: as §1

[4] = system: IL-10; assay: Inhibition of inflammatory cytokine mRNA expression (RT-PCR) in LPS-treated Raw264.7 cells: IL-10; type: cell-based, mouse; details: 400 uM, LPS 1 ug/ml, 24 hours
Method: as §1

[5] = system: COX-2; assay: Inhibition of inflammatory cytokine mRNA expression (RT-PCR) in LPS-treated Raw264.7 cells: COX-2; type: cell-based, mouse; details: 400 uM, LPS 1 ug/ml, 24 hours
Method: as §1

[6] = 0.03% and 0.1%, applied on affected sites for 10 days

Cn1c(N)nc2c(ncn2C)c1=O [compound of Formula 1, 2-amino-1,9-dimethylpurin-6-one]
IL-6 mRNA expression level [1]: effectively inhibited
dermatitis scores, in words [2, 6]: significantly reduced
differences of left and right ear thicknesses, in words [2, 6]: significantly reduced
epidermis thicknesses, in words [2, 6]: significantly reduced
numbers of mast cells, in words [2, 6]: significantly reduced
serum IgE levels, in words [2, 6]: significantly reduced
Reducing ratio (%) Dermatitis score ([2]; Test group 1 (0.03%)): 8.96* %
Reducing ratio (%) Difference of left and right ear thicknesses ([2]; Test group 1 (0.03%)): 7.69%
Reducing ratio (%) Epidermis thickness ([2]; Test group 1 (0.03%)): 36.13*** %
Reducing ratio (%) Number of mast cells ([2]; Test group 1 (0.03%)): 7.7%
Reducing ratio (%) Serum IgE level ([2]; Test group 1 (0.03%)): 51.76%
Reducing ratio (%) Dermatitis score ([2]; Test group 2 (0.1%)): 24.00*** %
Reducing ratio (%) Difference of left and right ear thicknesses ([2]; Test group 2 (0.1%)): 38.46%
Reducing ratio (%) Epidermis thickness ([2]; Test group 2 (0.1%)): 52.63*** %
Reducing ratio (%) Number of mast cells ([2]; Test group 2 (0.1%)): 24.9** %
Reducing ratio (%) Serum IgE level ([2]; Test group 2 (0.1%)): 56.46** %
IL-12p40 mRNA expression level [3]: effectively inhibited
IL-10 mRNA expression level [4]: effectively inhibited
COX-2 mRNA expression level [5]: effectively inhibited
